Columns and labels:
hA3AR [1] = molecular target: T1, hA3AR (Homo sapiens, UniProt P0DMS8); conditions: 25 °C; ref 7 (Xia et al.); cited from earlier work
T1 sequence (P0DMS8 1-318): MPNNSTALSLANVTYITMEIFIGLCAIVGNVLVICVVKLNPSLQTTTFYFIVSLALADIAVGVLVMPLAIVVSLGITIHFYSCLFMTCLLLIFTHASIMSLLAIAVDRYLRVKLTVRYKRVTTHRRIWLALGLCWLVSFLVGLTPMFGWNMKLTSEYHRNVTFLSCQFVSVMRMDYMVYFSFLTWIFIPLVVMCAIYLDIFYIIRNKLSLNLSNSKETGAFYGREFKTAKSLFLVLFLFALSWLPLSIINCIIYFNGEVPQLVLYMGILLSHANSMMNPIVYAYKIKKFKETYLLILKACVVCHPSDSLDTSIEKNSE

hA3AR [2] = molecular target: T1, hA3AR; type: biochemical; conditions: for mode of antagonism: [35S]GTPγS binding assays, overall; for Schild slope, co-incubation: antagonist co-incubated with 2-Cl-IB-MECA for 30 min at 25 °C; for type of antagonism in co-incubation experiment: co-incubated with 2-Cl-IB-MECA; for type of antagonism in preincubation experiment: pretreatment with antagonist before 2-Cl-IB-MECA
hA3AR [3] = molecular target: T1, hA3AR; experiment: Time-dependent [3H]PSB-11 displacement with or without 4 h preincubation; type: binding; conditions: no preincubation, 0.5 h co-incubation with [3H]PSB-11, 25 °C
hA3AR [4] = molecular target: T1, hA3AR; experiment: Radioligand competition association assay with [3H]PSB-11; type: binding; conditions: competition association curve, Figure 3

Compound | koff (k2) of radioligand (hA3AR [1]) [min^–1] | kon (k1) of radioligand (hA3AR [1]) | mode of antagonism (hA3AR [2]) | Schild slope, co-incubation (hA3AR [2]) | type of antagonism in co-incubation experiment (hA3AR [2]) | type of antagonism in preincubation experiment (hA3AR [2]) | hA3AR pKi (pre-0 h) (hA3AR [3]) | Schild slope, preincubation (hA3AR [2]; antagonist preincubated 60 min at 25 °C before 2-Cl-IB-MECA for 30 min) | time to reach equilibrium (hA3AR [4]) [min]
CC[C@@H]1CN2C(=O)N(C)c3nc(-c4ccccc4)[nH]c3C2=N1 [[^3H]PSB-11, [^3H]8-Ethyl-4-methyl-2-phenyl-(8R)-4,5,7,8-tetrahydro-1H-imidazo[2,1-i]-purin-5-one] | 0.3992 ± 0.02 | 0.281 ± 0.04 × 10^8 M^–1 min^–1 | – | – | – | – | – | – | –
CCCn1c(=O)c2c(nc3cc(OC)ccn32)n(CCCNC(=O)c2ccc(S(=O)(=O)F)cc2)c1=O [compound 17b, 4-((3(8-Methoxy-2,4-dioxo-3-propyl-3,4-dihydropyrido[2,1-f]purin-1(2H)yl)propyl)carbamoyl)benzenesulfonyl Fluoride] | – | – | competitive insurmountable | 1.1 ± 0.1 | surmountable antagonism | insurmountable antagonism | – | – | –
CCCn1c(=O)c2c(nc3cc(OC)ccn32)n(CCCNC(=O)c2ccc(S(C)(=O)=O)cc2)c1=O [compound 19, N-(3-(8-Methoxy-2,4-dioxo-3-propyl-3,4-dihydropyrido[2,1-f]purin-1(2H)-yl)propyl)-4-(methylsulfonyl)benzamide] | – | – | competitive surmountable | 1.0 ± 0.1 | surmountable antagonism | surmountable antagonism | 6.2 ± 0.03 | 1.1 ± 0.1 | ≤ 30
